Experimental findings from patent publication US11596639B2, “Substituted indole Mcl-1 inhibitors” (Vanderbilt University, priority 2016, dated 2023) are described below.

In assay [1] the target is Mcl-1 (Homo sapiens (Human), UniProt Q07820). Kind of assay: Fluorescence polarization anisotropy (FPA) competition assay, FITC-Bak or FITC-Bim BH3 peptide. In kind it is binding. The note with it: read-out: Ki for Inhibition of Mcl-1 by FPA assay. For orientation: Polarisation of emitted light reports the rotation of a fluorescent probe.
For assay [2], the system named is H929 human cancer cell lines. Kind of assay: Cellular viability / proliferation (Cell TiterGlo, 72 h). In kind it is cell-based. In outline: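 Cells were seeded at 1,000 cells/well in medium with 10% FBS and dosed 24 h later with a 2-fold serial dilution of compound (top concentration 50 μM, final DMSO <1%).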
[3] abbreviates: Homo sapiens, NCI-H929, 72 h, read-out: GI50 on cellular proliferation of H929 human cancer cell lines, H929 cells, 72 h, Cell TiterGlo, 10% FBS.

As a reminder, the Ki is the equilibrium dissociation constant of an inhibitor or competing ligand from its target.

Read-outs that look alike come from different tables or passages of the source. A value given as a limit tells only on which side of the number the result lay.

Chain of Mcl-1 (Q07820 172-327): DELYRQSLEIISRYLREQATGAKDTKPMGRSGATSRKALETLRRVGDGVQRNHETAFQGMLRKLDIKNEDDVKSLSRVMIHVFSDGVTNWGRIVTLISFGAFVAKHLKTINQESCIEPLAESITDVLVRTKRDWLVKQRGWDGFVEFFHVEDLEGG

`Cc1cc(OCCCc2c3n(c4c(-c5c(C)nn(C)c5C)c(Cl)ccc24)[C@H](C)CN(c2coc4ccccc24)C3=O)cc(C)c1Cl` (single isomer, unassigned) [Example 237]: the Ki in assay [1] worked out at 14 nM. Besides, the GI50 in assay [2] (setting [3]) was found to be 7600 nM.
With `Cc1cc(OCCCc2c3n(c4c(-c5c(C)nn(C)c5C)c(Cl)ccc24)[C@H](C)CN(c2coc4ccccc24)C3=O)cc(C)c1Cl` (single isomer, unassigned) [Example 246], the Ki in assay [1] is 8.6 nM. Besides, the GI50 in assay [2] (read-out: GI50 on cellular proliferation of H929 human cancer cell lines, H929 cells, 72 h, Cell TiterGlo, 10% FBS) is 5300 nM.
Take `Cc1cc(OCCCc2c3n(c4c(-c5c(C)nn(C)c5C)c(Cl)ccc24)CCCN(c2cc(C(=O)O)c4c(Br)cn(C)c4c2)C3=O)cc(C)c1Cl` [Example 2, 3-Bromo-6-(8-chloro-11-(3-(4-chloro-3,5-dimethylphenoxy)propyl)-1-oxo-7-(1,3,5-trimethyl-1H-pyrazol-4-yl)-4,5-dihydro-1H-[1,4]diazepino[1,2-a]indol-2(3H)-yl)-1-methyl-1H-indole-4-carboxylic acid]: the inhibition constant (Ki) in assay [1] is under 1 nM. The GI50 in assay [2] (setting [3]) amounted to 8300 nM.
The corresponding values for `Cc1cc(OCCCc2c3n(c4c(-c5c(C)nn(C)c5C)c(Cl)ccc24)CCCN(c2cc(C(=O)O)c4c(Cl)cn(C)c4c2)C3=O)cc(C)c1Cl` [Example 3, 3-Chloro-6-(8-chloro-11-(3-(4-chloro-3,5-dimethylphenoxy)propyl)-1-oxo-7-(1,3,5-trimethyl-1H-pyrazol-4-yl)-4,5-dihydro-1H-[1,4]diazepino[1,2-a]indol-2(3H)-yl)-1-methyl-1H-indole-4-carboxylic acid] are 1.1 nM and 6600 nM.
The corresponding values for `Cc1cc(OCCCc2c3n(c4c(-c5c(C)nn(C)c5C)c(Cl)ccc24)CCCN(c2cc(C(=O)O)c4nnn(C)c4c2)C3=O)cc(C)c1Cl` [Example 4, 6-[8-Chloro-11-[3-(4-chloro-3,5-dimethyl-phenoxy)propyl]-1-oxo-7-(1,3,5-trimethylpyrazol-4-yl)-4,5-dihydro-3H-[1,4]diazepino[1,2-a]indol-2-yl]-1-methyl-benzotriazole-4-carboxylic acid] are 3.3 nM and 8700 nM.
The corresponding values for `Cc1cc(OCCCc2c3n(c4c(-c5c(C)nn(C)c5C)c(Cl)ccc24)CCCN(c2cc(C(=O)O)c4ncn(C)c4c2)C3=O)cc(C)c1Cl` [Example 7, 6-[8-chloro-11-[3-(4-chloro-3,5-dimethyl-phenoxy)propyl]-1-oxo-7-(1,3,5-trimethylpyrazol-4-yl)-4,5-dihydro-3H-[1,4]diazepino[1,2-a]indol-2-yl]-1-methyl-benzimidazole-4-carboxylic acid] are 2.2 nM and 13000 nM.
Consider `Cc1cc(OCCCc2c3n(c4c(-c5c(C)nn(C)c5C)c(Cl)ccc24)CCCN(c2cc(C(=O)O)cc4c2ccn4CCN(C)C)C3=O)cc(C)c1Cl` [Example 11, 4-(8-Chloro-11-(3-(4-chloro-3,5-dimethylphenoxy)propyl)-1-oxo-7-(1,3,5-trimethyl-1H-pyrazol-4-yl)-4,5-dihydro-1H-[1,4]diazepino[1,2-a]indol-2(3H)-yl)-1-(2-(dimethylamino)ethyl)-1H-indole-6-carboxylic acid], for which the Ki in assay [1] turned out to be 4 nM. Moreover, the GI50 in assay [2] (setting [3]) is 9900 nM.
The corresponding values for `Cc1cc(OCCCc2c3n(c4c(-c5c(C)nn(C)c5C)c(Cl)ccc24)CCCN(c2cc(C(=O)O)c4cn(CCN5CCOCC5)nc4c2)C3=O)cc(C)c1Cl` [Example 12, 6-[8-Chloro-11-[3-(4-chloro-3,5-dimethyl-phenoxy)propyl]-1-oxo-7-(1,3,5-trimethylpyrazol-4-yl)-4,5-dihydro-3H-[1,4]diazepino[1,2-a]indol-2-yl]-2-(2-morpholinoethyl)indazole-4-carboxylic acid] are 1.2 nM and 8300 nM.
Taken in the same sequence, the figures for `Cc1cc(OCCCc2c3n(c4c(-c5c(C)nn(C)c5C)c(Cl)ccc24)CCCN(c2cccc4c(C(=O)O)nn(C)c24)C3=O)cc(C)c1Cl` [Example 13, 7-[8-Chloro-11-[3-(4-chloro-3,5-dimethyl-phenoxy)propyl]-1-oxo-7-(1,3,5-trimethylpyrazol-4-yl)-4,5-dihydro-3H-[1,4]diazepino[1,2-a]indol-2-yl]-1-methyl-indazole-3-carboxylic acid] were under 1 nM and 4500 nM.
Regarding `Cc1cc(OCCCc2c3n(c4c(-c5c(C)nn(C)c5C)c(Cl)ccc24)CCCN(c2cc(C(=O)O)c4cnn(CCN5CCOCC5)c4c2)C3=O)cc(C)c1Cl` [Example 14, 6-[8-Chloro-11-[3-(4-chloro-3,5-dimethyl-phenoxy)propyl]-1-oxo-7-(1,3,5-trimethylpyrazol-4-yl)-4,5-dihydro-3H-[1,4]diazepino[1,2-a]indol-2-yl]-1-(2-morpholinoethyl)indazole-4-carboxylic acid], the Ki in assay [1] was under 1 nM. The GI50 in assay [2] (setting [3]) is 3200 nM.
The corresponding values for `Cc1cc(OCCCc2c3n(c4c(-c5c(C)nn(C)c5C)c(Cl)ccc24)CCCN(c2cccc4c(-c5nn[nH]n5)cn(C)c24)C3=O)cc(C)c1Cl` [Example 15, 8-Chloro-11-[3-(4-chloro-3,5-dimethyl-phenoxy)propyl]-2-[1-methyl-3-(2H-tetrazol-5-yl)indol-7-yl]-7-(1,3,5-trimethylpyrazol-4-yl)-4,5-dihydro-3H-[1,4]diazepino[1,2-a]indol-1-one] are 2.2 nM and 11000 nM.
Taken in the same sequence, the figures for `Cc1cc(OCCCc2c3n(c4c(-c5c(C)nn(C)c5C)c(Cl)ccc24)CCCN(c2cccc4c(C(=O)O)n(C)nc24)C3=O)cc(C)c1Cl` [Example 16, 7-[8-Chloro-11-[3-(4-chloro-3,5-dimethyl-phenoxy)propyl]-1-oxo-7-(1,3,5-trimethylpyrazol-4-yl)-4,5-dihydro-3H-[1,4]diazepino[1,2-a]indol-2-yl]-2-methyl-indazole-3-carboxylic acid] were under 1 nM and 2900 nM.
The corresponding values for `CC[C@@H]1Cn2c(c(CCCOc3cc(C)c(Cl)c(C)c3)c3ccc(Cl)c(-c4c(C)nn(C)c4C)c32)C(=O)N1c1ccc(C(=O)O)c2ncccc12` [Example 19, (R)-5-(7-chloro-10-(3-(4-chloro-3,5-dimethylphenoxy)propyl)-3-ethyl-1-oxo-6-(1,3,5-trimethyl-1H-pyrazol-4-yl)-3,4-dihydropyrazino[1,2-a]indol-2(1H)-yl)quinoline-8-carboxylic acid] are 1.9 nM and 4100 nM.
For `CC[C@@H]1Cn2c(c(CCCOc3cc(C)c(Cl)c(C)c3)c3ccc(Cl)c(-c4c(C)nn(C)c4C)c32)C(=O)N1Cc1ccc(C(=O)O)cn1` [Example 20, (R)-6-((7-chloro-10-(3-(4-chloro-3,5-dimethylphenoxy)propyl)-3-ethyl-1-oxo-6-(1,3,5-trimethyl-1H-pyrazol-4-yl)-3,4-dihydropyrazino[1,2-a]indol-2(1H)-yl)methyl)nicotinic acid], the Ki in assay [1] was found to be 2.5 nM. Also, in assay [2] (setting [3]), the GI50 is 6500 nM.
`CC[C@@H]1Cn2c(c(CCCOc3cc(C)c(Cl)c(C)c3)c3ccc(Cl)c(-c4c(C)nn(C)c4C)c32)C(=O)N1c1cccc(C(=O)O)c1` [Example 21, (R)-3-(7-chloro-10-(3-(4-chloro-3,5-dimethylphenoxy)propyl)-3-ethyl-t-oxo-6-(1,3,5-trimethyl-1H-pyrazol-4-yl)-3,4-dihydropyrazino[1,2-a]indol-2(1H)-yl)benzoic acid]: the Ki in assay [1] amounted to 2.3 nM. Besides, the GI50 in assay [2] (H929 cells, 72 h, Cell TiterGlo, 10% FBS, read-out: GI50 on cellular proliferation of H929 human cancer cell lines) was 4900 nM.
`CC[C@@H]1Cn2c(c(CCCOc3cc(C)c(Cl)c(C)c3)c3ccc(Cl)c(-c4c(C)nn(C)c4C)c32)C(=O)N1c1ccc(C(=O)O)cc1` [Example 23, (R)-4-(7-chloro-10-(3-(4-chloro-3,5-dimethylphenoxy)propyl)-3-ethyl-1-oxo-6-(1,3,5-trimethyl-1H-pyrazol-4-yl)-3,4-dihydropyrazino[1,2-a]indol-2(1H)-yl)benzoic acid]: in assay [1], the Ki is under 1 nM. The GI50 in assay [2] (setting [3]) was found to be 4900 nM.
Taken in the same sequence, the figures for `Cc1cc(OCCCc2c3n(c4c(-c5c(C)nn(C)c5C)c(Cl)ccc24)[C@H](C)CN(c2cc(C(=O)O)cc4c2OCCO4)C3=O)cc(C)c1Cl` [Example 26, (R)-8-(7-chloro-10-(3-(4-chloro-3,5-dimethylphenoxy)propyl)-4-methyl-1-oxo-6-(1,3,5-trimethyl-1H-pyrazol-4-yl)-3,4-dihydropyrazino[1,2-a]indol-2(1H)-yl)-2,3-dihydrobenzo[b][1,4]dioxine-6-carboxylic acid] were 1.3 nM and 830 nM.
As to `Cc1cc(OCCCc2c3n(c4c(-c5c(C)nn(C)c5C)c(Cl)ccc24)CCCN(c2cc(C(=O)O)cc4nn(CCN(C)C)cc24)C3=O)cc(C)c1Cl` [Example 28, 4-[8-chloro-11-[3-(4-chloro-3,5-dimethyl-phenoxy)propyl]-1-oxo-7-(1,3,5-trimethylpyrazol-4-yl)-4,5-dihydro-3H-[1,4]diazepino[1,2-a]indol-2-yl]-2-[2-(dimethylamino)ethyl]indazole-6-carboxylic acid], the Ki in assay [1] amounted to 1.8 nM. In addition, the GI50 in assay [2] (setting [3]) amounted to 3700 nM.
Taken in the same sequence, the figures for `Cc1cc(OCCCc2c3n(c4c(-c5c(C)nn(C)c5C)c(Cl)ccc24)CCCN(c2cc(C(=O)O)c4cnn(CCN(C)C)c4c2)C3=O)cc(C)c1Cl` [Example 30, 6-[8-Chloro-11-[3-(4-chloro-3,5-dimethyl-phenoxy)propyl]-1-oxo-7-(1,3,5-trimethylpyrazol-4-yl)-4,5-dihydro-3H-[1,4]diazepino[1,2-a]indol-2-yl]-1-[2-(dimethylamino)ethyl]indazole-4-carboxylic acid] were 1.2 nM and 5400 nM.
